# Laboratory results taken from patent US12161762B2, “Nanohelix-substrate complex for controlling macrophage behavior, preparation method thereof, and method of controlling adhesion and polarization of macrophage by using the same” (Korea University Research and Business Foundation, priority 2020, dated 2024).
# Tested on: Macrophages (RAW 264.7)
# Assay: Macrophage polarization on the substrate with inhibitors of ROCK, myosin II or actin polymerization
# Type: cell-based
# Settings: 50 μM Y27632, 10 blebbistatin, 2 μg/mL cytochalasin D; for M1 polarization suppression of macrophages (CD68): M1 medium, 36 hours, bimodal switching "ON" state; for stimulation of robust adhesion (cell area, elongation factor) and expression of M2 polarization (Arg-1 expression): M2 medium, inhibitor treated
# Procedure: M1 medium used for assessment of the phenotypic polarization of macrophages was prepared by using a basal medium with 10 ng/mL each of lipopolysaccharide (LPS) and recombinant interferon-gamma (IFN-γ). M2 medium was prepared by using a basal medium with 20 ng/mL each of interleukin-4 (IL4) and interleukin-13 (IL-13). The adhesion-assisted M2 phenotypic polarization of the macrophages was assessed with inhibitors of ROCK (50 μM Y27632), myosin II (10 blebbistatin), or actin polymerization (2 μg/mL of cytochalasin D).
# An upper part of FIG. 19 is a confocal immunofluorescent image of CD68, F-actin, and nuclei in macrophages cultured in an M1 polarization medium with and without an inhibitor for ROCK (Y27632), myosin II (blebbistatin), or actin polymerization (cytochalasin D) for 36 hours against and a graph illustrating a cell area, a cell elongation factor, and CD68 fluorescence intensity calculated based on a confocal immunofluorescent experiment result, and a lower part of FIG. 19 is a confocal immunofluorescent image of Arg-1, and F-actin, and nuclei in macrophages cultured in an M2 polarization medium with and without an inhibitor for ROCK (Y27632), myosin II (blebbistatin), or actin polymerization (cytochalasin D) and a graph illustrating a cell area, a cell elongation factor, and Arg-1 fluorescence intensity calculated based on the confocal immunofluorescent experiment result, and a scale bar represents 20 μm.
Compound,M1 polarization suppression of macrophages (CD68),"stimulation of robust adhesion (cell area, elongation factor) and expression of M2 polarization (Arg-1 expression)"
"C[C@@H](N)[C@H]1CC[C@H](C(=O)Nc2ccncc2)CC1 [Example Y27632, Y27632]",continuously hindered,hindered
C=C1[C@@H](C)[C@H]2[C@H](Cc3ccccc3)NC(=O)[C@]23[C@H](OC(C)=O)/C=C/[C@@](C)(O)C(=O)[C@@H](C)C/C=C/[C@H]3[C@@H]1O [cytochalasin D],continuously hindered,hindered
Cc1ccc2c(c1)C(=O)C1(O)CCN(c3ccccc3)C1=N2 (stereo not drawn) [blebbistatin],continuously hindered,hindered
